Data on 1 compound can be found in PMC5507595 (Free radical biology & medicine, 2017).

This experiment addresses protein disulfide isomerase (PDI) (Homo sapiens, UniProt P07237). The experiment is described as follows: absorbance titration of MNS with reduced PDI. In kind it is binding.

Sequence of protein disulfide isomerase (PDI) (P07237 18-508): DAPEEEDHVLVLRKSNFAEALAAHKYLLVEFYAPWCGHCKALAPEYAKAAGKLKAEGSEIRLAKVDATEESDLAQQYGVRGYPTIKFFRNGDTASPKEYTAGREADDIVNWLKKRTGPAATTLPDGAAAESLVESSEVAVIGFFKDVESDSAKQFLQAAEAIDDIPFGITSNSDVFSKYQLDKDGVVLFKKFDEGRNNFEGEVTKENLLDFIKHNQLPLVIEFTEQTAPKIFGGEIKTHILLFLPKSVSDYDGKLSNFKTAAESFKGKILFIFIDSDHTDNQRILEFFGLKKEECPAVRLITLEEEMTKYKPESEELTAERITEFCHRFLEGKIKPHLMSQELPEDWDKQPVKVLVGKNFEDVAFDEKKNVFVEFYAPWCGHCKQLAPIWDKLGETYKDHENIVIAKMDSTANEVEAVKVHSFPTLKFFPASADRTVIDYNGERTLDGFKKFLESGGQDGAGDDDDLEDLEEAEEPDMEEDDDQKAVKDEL

For `O=[N+]([O-])C=Cc1ccc2c(c1)OCO2` [3,4-methylenedioxy-β-nitrostyrene], the Kd result is “low micromolar”.
